Laboratory results reported in PMC6257622, “Discovery and Structure–Activity-Relationship Study of N-Alkyl-5-hydroxypyrimidinone Carboxamides as Novel Antitubercular Agents Targeting Decaprenylphosphoryl-β-D-ribose 2′-Oxidase” (Journal of Medicinal Chemistry, 2018).
≈ marks a conversion by molar mass, not a printed value. Read-outs that look alike come from different tables or passages of the source.

Experiments:
Mtb strain H37Rv = assay: MIC determination against Mtb H37Rv in different media; assay type: cell-based, Mycobacterium tuberculosis; details: for antitubercular activity (in words): SAR discussion
in vitro = assay type: cell-based; details: human; HepG2 cells in DMEM/10% FBS supplemented with glucose; read-out: Cytotoxicity (IC50) Glucose
HepG2 cells = assay: in vitro; assay type: cell-based
[1] = system: Mtb in J774 murine macrophages; assay: Intracellular killing assay in murine macrophage J774; details: 1–50-fold MIC, 4 or 7 days
Method: For the ex vivo efficacy test, J774 cells (5 × 10^5 cells/well) were seeded in flat-bottom 24-well plates (Corning Inc.) in DMEM GlutaMAX (Gibco/ThermoFisher Scientific) supplemented with 10% fetal-bovine serum, 20 mM HEPES, and 0.5 mM sodium pyruvate (hereafter abbreviated as DMEM/FBS). Cells were infected with Mtb (5 × 10^5 cells/well, MOI 1) for 24 h; this was followed by medium removal and washing (2×) with an equal volume of Dulbecco’s PBS. Infected cells were fed DMEM/FBS and exposed to test compounds at 1×, 10×, 20×, and 50× MIC in medium (500 μL/well). Cells were incubated at 37 °C with 95% humidity and 5% CO2 in an incubator for 7 days. The medium was changed every 4 days. After 4 and 7 days of incubation, 0.1% SDS was added to each well to lyse the J774 cells. After 5 min, the lysate was thoroughly mixed and diluted in 7H9/ADC, and appropriate dilutions were plated in duplicate on 7H11/OADC plates.

[2] = Mycobacterium tuberculosis, H37RV, Mtb H37Rv in GAST (Table 2), read-out: MIC GAST
[3] = Mycobacterium tuberculosis, H37RV, supplementary CSV, read-out: MIC in 7H9/ADC
[4] = Mycobacterium tuberculosis, H37RV, supplementary CSV, read-out: MIC in GAST/Fe
[5] = Mycobacterium tuberculosis, H37RV, read-out: MIC 7H9/ADC
[6] = HepG2 cells in DMEM/10% FBS with galactose (mitochondrial toxicity), read-out: Cytotoxicity (IC50) Galactose
[7] = Mtb H37Rv in GAST (Table 2), read-out: MIC GAST
[8] = supplementary CSV, read-out: MIC in 7H9/ADC
[9] = supplementary CSV, read-out: MIC in GAST/Fe
[10] = HepG2 cells in DMEM/10% FBS supplemented with glucose, read-out: Cytotoxicity (IC50) Glucose

Molecule | MIC (Mtb strain H37Rv; [2]) [µM] | MIC (Mtb strain H37Rv; [3]) [µM] | MIC (Mtb strain H37Rv; [4]) [µM] | MIC (Mtb strain H37Rv; [5]) [µM] | IC50 (in vitro) [µM] | IC50 (HepG2 cells; [6]) [µM] | MIC (Mtb strain H37Rv; [7]) [µM] | antitubercular activity (in words) (Mtb strain H37Rv) | MIC (Mtb strain H37Rv; read-out: MIC 7H9/ADC) [µM] | MIC (Mtb strain H37Rv; [8]) [µM] | MIC (Mtb strain H37Rv; [9]) [µM] | IC50 (HepG2 cells; [10]) [µM] | activity against Mtb replication in J774 murine macrophages [1] | fold increase in MIC (reduced potency) compared with P01 (Mtb strain H37Rv) | fold more potent than regioisomer P10 (Mtb strain H37Rv; o-F versus p-F) [fold]
Cn1c(Cc2ccccc2C(F)(F)F)nc(C(=O)CCc2ccccc2)c(O)c1=O [Compound P18, 5-Hydroxy-3-methyl-6-(3-phenylpropanoyl)-2-(2-(trifluoromethyl)benzyl)pyrimidin-4(3H)-one] | 12.5 (≈ 5.2 µg/mL) | 100 (≈ 41.6 µg/mL) | 12.5 (≈ 5.2 µg/mL) | 100 (≈ 41.6 µg/mL) | > 100 | > 100 |  |  |  |  |  |  |  |  | 
N-Benzyl-2-ethyl-5-hydroxy-1-methyl-6-oxo-1,6-dihydropyrimidine-4-carboxamide [Compound P03] |  |  |  |  |  | > 100 | >100 | complete loss of potency | >100 | >100 | >100 | > 100 |  |  | 
Cn1c(Cc2ccccc2C(F)(F)F)nc(C(=O)NCc2ccccn2)c(O)c1=O [Compound P07, 5-Hydroxy-1-methyl-6-oxo-N-(pyridin-2-ylmethyl)-2-(2-(trifluoromethyl)benzyl)-1,6-dihydropyrimidine-4-carboxamide] | 1.2 (≈ 0.502 µg/mL) | 3.1 (≈ 1.3 µg/mL) | 1.2 (≈ 0.502 µg/mL) | 3.1 (≈ 1.3 µg/mL) | > 100 | > 100 |  |  |  |  |  |  | active |  | 
CN(Cc1ccccc1)C(=O)c1nc(Cc2ccccc2C(F)(F)F)n(C)c(=O)c1O [Compound P12, N-Benzyl-5-hydroxy-N,1-dimethyl-6-oxo-2-(2-(trifluoromethyl)benzyl)-1,6-dihydropyrimidine-4-carboxamide] | > 100 | > 100 | > 100 | > 100 | > 100 | > 100 |  | loss of activity |  |  |  |  |  |  | 
O=C(NCc1ccccc1)c1nc(Cc2ccccc2C(F)(F)F)[nH]c(=O)c1O [Compound P14, N-Benzyl-5-hydroxy-6-oxo-2-(2-(trifluoromethyl)benzyl)-1,6-dihydropyrimidine-4-carboxamide] | > 100 | > 100 | > 100 | > 100 | > 100 | > 100 |  | not tolerated |  |  |  |  |  |  | 
CC(NC(=O)c1nc(Cc2ccccc2C(F)(F)F)n(C)c(=O)c1O)c1ccccc1 (stereo not shown) [Compound P13, 5-Hydroxy-1-methyl-6-oxo-N-(1-phenylethyl)-2-(2-(trifluoromethyl)benzyl)-1,6-dihydropyrimidine-4-carboxamide] | > 100 | > 100 | > 100 | > 100 | > 100 | > 100 |  | loss of activity |  |  |  |  |  |  | 
Cn1c(Cc2ccccc2C(F)(F)F)nc(C(=O)Nc2ccccc2)c(O)c1=O [Compound P05, 5-Hydroxy-1-methyl-6-oxo-N-phenyl-2-(2-(trifluoromethyl)benzyl)-1,6-dihydropyrimidine-4-carboxamide] | 1.6 (≈ 0.645 µg/mL) | 18.8 (≈ 7.58 µg/mL) | 1.6 (≈ 0.645 µg/mL) | 18.8 (≈ 7.58 µg/mL) | > 100 | > 100 |  |  |  |  |  |  |  | around 4 fold | 
Cn1c(Cc2ccccc2C(F)(F)F)nc(C(=O)NCc2ccc3c(c2)OCO3)c(O)c1=O [Compound P11, N-(Benzo[d][1,3]dioxol-5-ylmethyl)-5-hydroxy-1-methyl-6-oxo-2-(2-(trifluoromethyl)benzyl)-1,6-dihydropyrimidine-4-carboxamide] | 37.5 (≈ 17.3 µg/mL) | > 100 | 37.5 (≈ 17.3 µg/mL) | > 100 | > 100 | > 100 |  |  |  |  |  |  |  |  | 
Cn1c(Cc2ccccc2C(F)(F)F)nc(C(=O)NCC2CCCCC2)c(O)c1=O [Compound P06, N-(Cyclohexylmethyl)-5-hydroxy-1-methyl-6-oxo-2-(2-(trifluoromethyl)benzyl)-1,6-dihydropyrimidine-4-carboxamide] | 12.5 (≈ 5.29 µg/mL) | > 100 | 12.5 (≈ 5.29 µg/mL) | > 100 | > 100 | > 100 |  |  |  |  |  |  |  |  | 
Cn1c(Cc2ccccc2C(F)(F)F)nc(C(=O)NCc2cccnc2)c(O)c1=O [Compound P08, 5-Hydroxy-1-methyl-6-oxo-N-(pyridin-3-ylmethyl)-2-(2-(trifluoromethyl)benzyl)-1,6-dihydropyrimidine-4-carboxamide] | 4.7 (≈ 1.97 µg/mL) | 18.8 (≈ 7.87 µg/mL) | 4.7 (≈ 1.97 µg/mL) | 18.8 (≈ 7.87 µg/mL) | > 100 | > 100 |  |  |  |  |  |  |  |  | 
COc1c(C(=O)NCc2ccccc2)nc(Cc2ccccc2C(F)(F)F)n(C)c1=O [Compound P17, N-Benzyl-5-methoxy-1-methyl-6-oxo-2-(2-(trifluoromethyl)benzyl)-1,6-dihydropyrimidine-4-carboxamide] | > 100 | > 100 | > 100 | > 100 | > 100 | > 100 |  | inactive |  |  |  |  |  |  | 
Cn1c(Cc2ccccc2C(F)(F)F)nc(C(=O)NCc2ccccc2F)c(O)c1=O [Compound P09, N-(2-Fluorobenzyl)-5-hydroxy-1-methyl-6-oxo-2-(2-(trifluoromethyl)benzyl)-1,6-dihydropyrimidine-4-carboxamide] | 0.59 (≈ 0.257 µg/mL) | 4.7 (≈ 2.05 µg/mL) | 0.59 (≈ 0.257 µg/mL) | 4.7 (≈ 2.05 µg/mL) | > 100 | > 100 |  |  |  |  |  |  | active |  | > 4
Cn1c(Cc2ccccc2)nc(C(=O)NCc2ccccc2)c(O)c1=O [Compound P02, N,2-Dibenzyl-5-hydroxy-1-methyl-6-oxo-1,6-dihydropyrimidine-4-carboxamide] | 3.1 (≈ 1.08 µg/mL) | 9.4 (≈ 3.28 µg/mL) | 3.1 (≈ 1.08 µg/mL) | 9.4 (≈ 3.28 µg/mL) | > 100 | > 100 |  |  |  |  |  |  |  |  | 
CC(c1ccccc1C(F)(F)F)c1nc(C(=O)NCc2ccccc2)c(O)c(=O)n1C (stereo not shown) [Compound P15, N-Benzyl-5-hydroxy-1-methyl-6-oxo-2-(1-(2-(trifluoromethyl)phenyl)ethyl)-1,6-dihydropyrimidine-4-carboxamide] | 3.1 (≈ 1.34 µg/mL) | 18.3 (≈ 7.89 µg/mL) | 3.1 (≈ 1.34 µg/mL) | 18.3 (≈ 7.89 µg/mL) | > 100 | > 100 |  |  |  |  |  |  |  | 5 fold | 
CCn1c(Cc2ccccc2C(F)(F)F)nc(C(=O)NCc2ccccc2)c(O)c1=O [Compound P04, N-Benzyl-1-ethyl-5-hydroxy-6-oxo-2-(2-(trifluoromethyl)benzyl)-1,6-dihydropyrimidine-4-carboxamide] | 0.4 (≈ 0.173 µg/mL) | 2.3 (≈ 0.992 µg/mL) | 0.39 (≈ 0.168 µg/mL) | 2.3 (≈ 0.992 µg/mL) | > 100 | > 100 | 0.39 (≈ 0.168 µg/mL) |  |  |  |  |  | active |  | 
Cn1c(Cc2ccccc2C(F)(F)F)nc(C(=O)NCc2ccc(F)cc2)c(O)c1=O [Compound P10, N-(4-Fluorobenzyl)-5-hydroxy-1-methyl-6-oxo-2-(2-(trifluoromethyl)benzyl)-1,6-dihydropyrimidine-4-carboxamide] | 2.3 (≈ 1 µg/mL) | 18.8 (≈ 8.19 µg/mL) | 2.3 (≈ 1 µg/mL) | 18.8 (≈ 8.19 µg/mL) | > 100 | > 100 |  |  |  |  |  |  |  |  | 
N-Benzyl-5-hydroxy-6-methoxy-2-(2-(trifluoromethyl)benzyl)pyrimidine-4-carboxamide [Compound P16] |  |  |  |  |  | > 100 | 37.5 | inactive | >100 | >100 | 37.5 | > 100 |  |  | 
